Our source for the IC50 values is BindingDB's records for doi:10.1021/acs.jnatprod.1c00014 (Jiangsu University of Science and Technology, 2021).

For the assay, the target named is Maltase-glucoamylase (Homo sapiens, UniProt O43451). Nature of the assay: Inhibition of alpha-glucosidase (unknown origin) preincubated for 5 mins followed by addition of pNPG substrate and measured after 30 mins by spectrophotometric method.
Maltase-glucoamylase, sequence (O43451 whole entry): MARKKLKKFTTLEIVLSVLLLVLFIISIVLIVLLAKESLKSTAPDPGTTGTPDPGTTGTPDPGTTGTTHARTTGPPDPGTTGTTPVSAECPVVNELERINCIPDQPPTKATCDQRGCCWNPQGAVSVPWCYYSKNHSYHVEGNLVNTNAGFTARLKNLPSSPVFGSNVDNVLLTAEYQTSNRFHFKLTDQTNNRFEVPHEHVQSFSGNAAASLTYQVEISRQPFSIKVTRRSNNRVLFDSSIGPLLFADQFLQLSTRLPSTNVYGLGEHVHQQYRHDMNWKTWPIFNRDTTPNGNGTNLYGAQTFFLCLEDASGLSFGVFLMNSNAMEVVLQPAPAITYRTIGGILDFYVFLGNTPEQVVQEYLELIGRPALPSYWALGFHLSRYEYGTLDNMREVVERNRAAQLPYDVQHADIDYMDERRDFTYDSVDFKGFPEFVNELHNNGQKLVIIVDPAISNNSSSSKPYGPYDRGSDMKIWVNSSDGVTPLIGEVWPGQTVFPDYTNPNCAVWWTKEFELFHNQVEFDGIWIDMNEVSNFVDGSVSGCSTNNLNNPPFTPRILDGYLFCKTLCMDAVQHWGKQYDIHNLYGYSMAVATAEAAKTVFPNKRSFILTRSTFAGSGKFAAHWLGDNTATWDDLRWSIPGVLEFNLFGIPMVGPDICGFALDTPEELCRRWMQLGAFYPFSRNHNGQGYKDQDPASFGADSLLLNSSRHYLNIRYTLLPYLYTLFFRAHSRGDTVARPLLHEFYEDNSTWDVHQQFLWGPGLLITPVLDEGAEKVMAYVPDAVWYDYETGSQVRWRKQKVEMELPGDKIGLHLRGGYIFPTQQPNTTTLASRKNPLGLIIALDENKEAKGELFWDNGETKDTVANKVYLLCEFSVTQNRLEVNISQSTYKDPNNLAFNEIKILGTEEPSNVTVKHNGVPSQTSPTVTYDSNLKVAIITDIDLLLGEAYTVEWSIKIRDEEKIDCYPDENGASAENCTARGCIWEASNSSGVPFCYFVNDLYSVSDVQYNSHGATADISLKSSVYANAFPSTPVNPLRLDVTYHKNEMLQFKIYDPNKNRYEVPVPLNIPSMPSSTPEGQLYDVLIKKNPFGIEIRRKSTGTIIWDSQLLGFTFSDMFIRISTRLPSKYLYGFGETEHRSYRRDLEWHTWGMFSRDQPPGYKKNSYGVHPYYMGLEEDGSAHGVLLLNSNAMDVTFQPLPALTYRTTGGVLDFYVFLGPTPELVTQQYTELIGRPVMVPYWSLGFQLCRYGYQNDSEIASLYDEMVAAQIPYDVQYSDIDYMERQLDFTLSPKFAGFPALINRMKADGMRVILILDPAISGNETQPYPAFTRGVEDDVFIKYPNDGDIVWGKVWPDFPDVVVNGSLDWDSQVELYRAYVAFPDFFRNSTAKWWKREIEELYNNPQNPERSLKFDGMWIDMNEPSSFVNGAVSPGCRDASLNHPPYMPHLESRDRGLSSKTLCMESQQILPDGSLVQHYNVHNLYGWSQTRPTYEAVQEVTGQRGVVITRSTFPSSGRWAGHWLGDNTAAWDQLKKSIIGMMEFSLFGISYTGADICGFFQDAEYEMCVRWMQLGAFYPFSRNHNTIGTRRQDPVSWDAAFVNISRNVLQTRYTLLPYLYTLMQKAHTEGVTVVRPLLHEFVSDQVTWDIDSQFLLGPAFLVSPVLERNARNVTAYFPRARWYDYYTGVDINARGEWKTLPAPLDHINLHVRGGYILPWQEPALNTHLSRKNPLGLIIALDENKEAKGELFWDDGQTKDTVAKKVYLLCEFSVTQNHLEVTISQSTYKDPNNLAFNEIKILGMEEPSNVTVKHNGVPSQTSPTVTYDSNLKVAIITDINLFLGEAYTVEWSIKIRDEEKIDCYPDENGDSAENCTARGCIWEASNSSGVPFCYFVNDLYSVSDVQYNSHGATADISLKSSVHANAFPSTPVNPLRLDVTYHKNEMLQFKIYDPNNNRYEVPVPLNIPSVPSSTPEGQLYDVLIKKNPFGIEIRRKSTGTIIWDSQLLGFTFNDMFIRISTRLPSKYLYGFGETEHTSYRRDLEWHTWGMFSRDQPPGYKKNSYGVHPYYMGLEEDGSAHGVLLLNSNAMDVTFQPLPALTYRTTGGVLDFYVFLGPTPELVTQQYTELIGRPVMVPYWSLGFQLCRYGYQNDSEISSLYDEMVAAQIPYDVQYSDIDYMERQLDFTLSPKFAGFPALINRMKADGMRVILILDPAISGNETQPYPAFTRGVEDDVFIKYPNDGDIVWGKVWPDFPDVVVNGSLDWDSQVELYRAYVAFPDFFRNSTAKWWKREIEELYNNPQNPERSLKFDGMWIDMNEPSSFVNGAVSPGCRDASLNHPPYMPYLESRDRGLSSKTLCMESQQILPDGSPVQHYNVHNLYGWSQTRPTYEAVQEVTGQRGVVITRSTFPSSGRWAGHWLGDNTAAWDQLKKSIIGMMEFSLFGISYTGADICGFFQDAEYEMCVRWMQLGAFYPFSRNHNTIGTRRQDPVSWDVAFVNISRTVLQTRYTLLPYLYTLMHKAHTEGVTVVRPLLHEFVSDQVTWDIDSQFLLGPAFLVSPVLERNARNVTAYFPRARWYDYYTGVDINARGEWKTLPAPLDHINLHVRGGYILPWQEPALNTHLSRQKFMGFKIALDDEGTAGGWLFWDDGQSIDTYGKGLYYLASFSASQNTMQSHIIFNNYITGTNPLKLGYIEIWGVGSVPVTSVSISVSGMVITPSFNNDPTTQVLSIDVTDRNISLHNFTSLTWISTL
The term IC50 denotes the concentration at which inhibition is half-maximal. A higher IC50 goes with lower potency. Compound `COc1ccc(-c2oc3cc(OC)cc(OC)c3c(=O)c2OCCCCCN2C[C@H](O)[C@@H](O)[C@H](O)[C@H]2CO)cc1` registered an IC50 of 40600 nM. For `COc1ccc(-c2oc3cc(OC)cc(OC)c3c(=O)c2OCCCCCCCCN2C[C@H](O)[C@@H](O)[C@H](O)[C@H]2CO)cc1` the value was 1780 nM. The figure for `COc1ccc(-c2oc3cc(OC)cc(OC)c3c(=O)c2OCCCCCCCCCCCN2C[C@H](O)[C@@H](O)[C@H](O)[C@H]2CO)cc1` is 240 nM.
